US4570005A, “Process for the preparation of 2-arylpropyl ether or thioether derivatives” (priority 1980, dated 1986)
Read-outs that look alike come from different tables or passages of the source.

How the values were obtained:
diamond back moth = assay: Test 4: Effect on Diamond Back Moth; format: in vivo; details: Plutella
Protocol: (§1) To a mixture of 20 parts of the compound of the present invention and 20 parts of Sorpol SM-200 (registered tradename for the product supplied by Toho Chemical Industrial Co., Ltd.) was added 60 parts of xylol, and the mixture was suffciently blended. The obtained emulsifiable concentrate was diluted at a predetermined concentration with distilled water, and the obtained dilution was used.
Cabbage leaves were spread in a plastic cup, and 10 third-instar larvae of diamond back moth were set free in the cup.
A chemical dilution having a concentration of 100 or 20 ppm, prepared in the same manner as described in Test 1, was applied from an applicator at a rate of 3 ml per cup.
After scattering of the chemical dilution, the cup was covered, and after 24 hours, the numbers of killed and living larvae were counted and the mortality was calculated. The test was made on three cups and the average value was calculated.

German cockroach = assay: Test 7: Effect on German Cockroach; format: in vivo; details: Blattella germanica, male adults, agonized and killed after 24 hours, read-out: Mortality (%); for mortality at 10 mg/m2: 10 mg/m^2; for mortality at 50 mg/m2: 50 mg/m^2
Protocol: as §1
The bottom face of a high Petri dish having a diameter of 9 cm and a height of 9 cm was treated with 50 or 10 mg/m^2 of a test compound and the dish was air-dried. In order to prevent the adults from escaping from the dish, the inner wall of the dish was treated with butter. Then, 10 male adults of German cockroach were set free in each dish, and the dish was placed in a thermostat chamber maintained at 25° C. After 24 hours, the number of agonized and killed adults was counted. The test was made on two dishes and the average value was calculated.

[1] = Test 9: Toxicity Test (acute oral toxicity, mice); details: mouse, in vivo, po
Protocol: A predetermined amount of a solution or suspension of a test compound in corn oil was orally administered to male mice having a body weight of 19 to 23 g (0.2 ml per 10 g of the body weight). After 7 days, the number of killed mice was counted and the influences on the mice were examined.

[2] = system: sensitive green rice leafhopper (collected at Chigasaki); assay: whole plant or invertebrate; format: in vivo; details: Nephotettix cincticeps, sensitive female adults, 24 hours, read-out: Mortality (%), Green Rice Leafhopper Collected at Chigasaki
Protocol: as §1
(§2) Seedlings (having 2 to 3 leaves) of paddy rice were hydroponically cultured in a pot having a diameter of 5 cm. A chemical dilution having a concentration of 100 or 20 ppm, prepared in the same manner as described in Test 1, was applied with a sprayer at a rate of 3 ml per pot. The treated seedlings were air-dried and covered with a metal net cylinder, and female adults of resistant green rice leafhopper (collected at Nakagawara) and sensitive green rice leafhopper (collected at Chigasaki) were set, respectively, free in the pot at a density of 10 adults per pot. After 24 hours, the numbers of killed and living adults were counted and the mortality was calculated. The test was made on three pots and the average value was calculated.

[3] = system: resistant green rice leafhopper (collected at Nakagawara); assay: Test 3: Effect on Resistant Green Rice Leafhopper (collected at Nakagawara); format: in vivo, Nephotettix cincticeps Uhler (Green rice leafhopper); details: Nephotettix cincticeps, 24 h, read-out: Mortality (%), Green Rice Leafhopper Collected at Nakagawara
Protocol: as §1, §2

tobacco cutworm [4] = assay: Test 2: Tobacco Cutworm Larva Dipping Test, mortality after 24 hours; format: in vivo
Protocol: as §1
A dilution having a chemical concentration of 100 or 20 ppm was prepared in the same manner as described in Test 1.
Second-instar and fifth-instar larvae of tobacco cutworm were dipped in the dilution for 5 seconds, and the excessive dilution was removed by a filter paper. Then, the larvae were set free in a plastic cup and an artificial diet was supplied thereto. The cup was allowed to stand still in a thermostat chamber maintained at 25° C. After 24 hours, the numbers of the killed and living larvae were counted and the mortality was calculated. The test was made on three cups and the result was expressed by an average value.

tobacco cutworm [5] = assay: Test 1: Effect on Tobacco Cutworm (leaf immersion), mortality after 24 hours; format: in vivo; details: second-instar larvae, 25° C
Protocol: as §1
An emulsifiable concentrate of a test compound prepared according to the method described in Formulation Example 1 was diluted to a concentration of 100 or 20 ppm. Sweet-potato leaves were immersed in the dilution for 10 seconds, air-dried and placed in a plastic cup having a diameter of 10 cm. Then second-instar larvae of tobacco cutworm were set free in the cup. The cup was allowed to stand still in a thermostat chamber maintained at 25° C. After 24 hours, the numbers of killed and living larvae were counted and the mortality was calculated. The obtained result was expressed by an average value obtained from the mortality calculated in three test cups.

Test 8: Fish Toxicity = format: in vivo; details: carp, water; concentration at which 1/2 of the test fishes were killed within 48 hours; read-out: Fish Toxicity, TLm48
Protocol: A water tank having a width of 60 cm, a length of 30 cm and a height of 40 cm was filled with water, and 10 yearling carps having a body length of about 5 cm were set free in the tank and adapted to the environment in the tank. A test compound was applied so that the concentration in water was 10, 1 or 0.1 ppm. After 48 hours, the numbers of killed and living carps were counted and the influences on the fishes were examined.

[6] = 20 ppm, third-instar larvae, 24 hours, read-out: Mortality (%)
[7] = 100 ppm, third-instar larvae, 24 hours, read-out: Mortality (%)
[8] = 20 ppm, fifth-instar larvae, 24 hours, read-out: Motality (%), Fifth-Instar Larvae
[9] = 20 ppm, second-instar larvae, 24 hours, read-out: Motality (%), Second-Instar Larvae
[10] = 100 ppm, fifth-instar larvae, 24 hours, read-out: Motality (%), Fifth-Instar Larvae
[11] = 100 ppm, second-instar larvae, 24 hours, read-out: Motality (%), Second-Instar Larvae
[12] = 24 h, read-out: Motality (%), Fifth-Instar Larvae

Compound	mortality at 20 ppm (diamond back moth; [6]) [%]	mortality at 100 ppm (diamond back moth; [7]) [%]	mortality at 10 mg/m2 (German cockroach) [%]	mortality at 50 mg/m2 (German cockroach) [%]	LD50 at 168 h [1] [mg/kg]	mortality at 20 ppm [2] [%]	mortality at 100 ppm [2] [%]	mortality at 20 ppm [3] [%]	mortality at 100 ppm [3] [%]	mortality at 20 ppm (tobacco cutworm [5]) [%]	mortality at 100 ppm (tobacco cutworm [5]) [%]	also measured
CC(C)(COCc1cccc(Oc2ccccc2)c1)c1ccc(SC(F)(F)F)cc1 [Compound 104, 3-Phenoxybenzyl 2-(4-trifluoromethylthiophenyl)-2-methylpropyl ether]	70	100	90	100	> 500	–	–	–	–	–	–	–
CC(C)(COCc1cccc(Oc2ccccc2)c1)c1ccc(OC2CCCC2)cc1 [Compound 61, 3-Phenoxybenzyl 2-(4-cyclopentyloxyphenyl)-2-methylpropyl ether]	–	–	70	100	> 500	100	100	100	100	–	–	–
C=COc1ccc(C(C)(C)COCc2cccc(Oc3ccccc3)c2)cc1 [Compound 67, 3-Phenoxybenzyl 2-(4-vinyloxyphenyl)-2-methylpropyl ether]	90	100	100	100	> 500	–	–	–	–	90	100	mortality at 20 ppm (tobacco cutworm [4]; [8]): 100%; mortality at 20 ppm (tobacco cutworm [4]; [9]): 100%; mortality at 100 ppm (tobacco cutworm [4]; [10]): 100%; mortality at 100 ppm (tobacco cutworm [4]; [11]): 100%
CC(F)(F)Oc1ccc(C(C)(C)COCc2cccc(Oc3ccccc3)c2)cc1 [Compound 79, 3-Phenoxybenzyl 2-[4-(1,1-difluoroethoxy)phenyl]-2-methylpropyl ether]	–	–	100	100	> 500	–	–	–	–	–	–	mortality at 20 ppm (tobacco cutworm [4]; [8]): 50%; mortality at 20 ppm (tobacco cutworm [4]; [9]): 80%; mortality at 100 ppm (tobacco cutworm [4]; [10]): 90%; mortality at 100 ppm (tobacco cutworm [4]; [11]): 100%
CC(C)(COCc1cccc(Oc2ccccc2)c1)c1ccc(I)cc1 [Compound 65, 3-Phenoxybenzyl 2-(4-iodophenyl)-2-methylpropyl ether]	–	–	90	100	> 500	100	100	100	100	90	100	–
CCOc1ccc(C(C)(C)COCc2cccc(Oc3ccc(Br)cc3)c2)cc1 [Compound 66, 3-(4-Bromophenoxy)benzyl 2-(4-ethoxyphenyl)-2-methylpropyl ether]	60	100	–	–	> 500	100	100	100	100	100	100	–
CC(C)(COCc1cccc(Oc2ccccc2)c1)c1ccc([N+](=O)[O-])cc1 [Compound 43, 3-Phenoxybenzyl 2-(4-nitrophenyl)-2-methylpropyl ether]	–	–	100	100	> 500	90	100	100	100	85	100	–
CC(C)(COCc1cccc(Oc2ccc(F)cc2)c1)c1ccc(Cl)c(Cl)c1 [Compound 17, 3-(4-fluorophenoxy)benzyl 2-(3,4-dichlorophenyl)-2-methylpropyl ether]	90	100	100	100	> 500	100	100	100	100	80	100	–
CC(C)(COCc1cccc(Oc2ccccc2)c1)c1ccc(OC(F)(F)CI)cc1 [Compound 74, 3-Phenoxybenzyl 2-[4-(1,1-difluoro-2-iodoethoxy)phenyl]-2-methylpropyl ether]	–	–	100	100	> 500	–	–	–	–	100	100	mortality at 20 ppm (tobacco cutworm [4]; [8]): 50%; mortality at 20 ppm (tobacco cutworm [4]; [9]): 70%; mortality at 100 ppm (tobacco cutworm [4]; [10]): 80%; mortality at 100 ppm (tobacco cutworm [4]; [11]): 100%
CC(C)(COCc1cccc(Oc2cccc(Cl)c2)c1)c1ccc(Cl)c(Cl)c1 [Compound 38, 3-(3-Chlorophenoxy)benzyl 2-(3,4-dichlorophenyl)-2-methylpropyl ether]	–	–	90	100	> 500	80	100	95	100	–	–	–
CNC(=O)ON=C(C)SC [Comparative Compound (f), S-methyl N-(methylcarbamoyloxy)thioacetoamidate, reference compound]	–	–	–	–	28	–	–	–	–	–	–	mortality at 20 ppm (diamond back moth; 24 h): 0%; mortality at 100 ppm (diamond back moth; 24 h): 10%; mortality at 20 ppm (tobacco cutworm [4]; [12]): 0%; mortality at 100 ppm (tobacco cutworm [4]; [12]): 80%; mortality at 20 ppm (tobacco cutworm [4]; 24 h, read-out: Motality (%), Second-Instar Larvae): 30%
CCOc1ccc(Oc2cccc(COCC(C)(C)c3ccc(OCC)cc3)c2)cc1 [Compound 101, 3-(4-Ethoxyphenoxy)benzyl 2-(4-ethoxyphenyl)-2-methylpropyl ether]	100	100	–	–	> 500	100	100	100	100	100	100	mortality at 20 ppm (tobacco cutworm [4]; [8]): 100%; mortality at 20 ppm (tobacco cutworm [4]; [9]): 100%; mortality at 100 ppm (tobacco cutworm [4]; [10]): 100%; mortality at 100 ppm (tobacco cutworm [4]; [11]): 100%
CCOc1ccc(Oc2cccc(COCC(C)(C)c3ccc(Cl)cc3)c2)cc1 [Compound 94, 3-(4-Ethoxyphenoxy)benzyl 2-(4-chlorophenyl)-2-methylpropyl ether]	80	100	–	–	> 500	100	100	100	100	100	100	–
Cc1ccc(C(C)(C)COCc2cccc(Oc3ccccc3)c2)cc1C [Compound 109]	–	–	100	100	> 500	70	100	90	100	–	–	–
CC1(C)C(C=C(Cl)Cl)C1C(=O)OCc1cccc(Oc2ccccc2)c1 (stereo not drawn) [(i), Permethrin, reference compound]	–	–	–	–	–	–	–	–	–	–	–	LC50 at 48 h (Test 8: Fish Toxicity): < 5 ng/mL
